From patent publication US20260166021A1, “POLYMORPHIC FORMS OF A SOLUBLE EPOXIDE HYDROLASE INHIBITOR AND FORMULATIONS THEREOF” (EicOsis, LLC, priority 2022, published 2026)

Legend:
[1] = Differential scanning calorimetry (DSC): heat of fusion, thermal events; format: physicochemical; details: for thermodynamic stability (from heat of fusion) / Heat of fusion: DSC; for thermodynamic stability (from heat of fusion): TABLE 10; for Heat of fusion: scaled-up polymorphs, measured during conversion from Form C
Description: Differential scanning calorimetry analyses were performed on each sample “as is.” Unless otherwise specified, samples were weighed in an aluminum pan, covered with a pierced lid, and then crimped and analyzed from 30-300° C. ramped at 10° C./min.
The DSC data were used to determine the heat of fusion for Forms A, B, D, and F, based on their heats of fusion as measured during conversion from Form C.

[2] = Thermal gravimetric analysis (TGA); format: physicochemical
Description: Thermal gravimetric analyses were performed on each sample “as is.” Unless otherwise noted, samples were weighed in an alumina crucible and analyzed from 30-350° C. at 10° C./min.
Form C weight loss at 39° C.-50° C. likely reflected methanol loss.

[3] = Competitive slurry experiments (solvent-mediated polymorph transformation, XRD); format: physicochemical; details: room temperature, 1 and 7 days
Description: Polymorph stability and interconversions were analyzed with competitive slurry experiments. The competitive slurry (solvent-mediated transformation) experiments were performed on Forms A, B, D, E, F, G, and I generated through scaled-up crystallization (summarized in TABLE 11). […] The suspensions were aliquoted at one day and seven days and filtered to isolate the solids. Remaining solid was analyzed by XRD without drying.
In FIG. 66, the second spectrum from the top corresponds to Form E. These XRD data confirmed that Patterns C, K, and D were afforded in these solvents.
In order to further confirm the rank of stability order of the selected forms and extend the temperature range of stability relationship up to 70° C. covering potential API process conditions, binary form slurries were conducted with starting mixtures of (1) Forms A and D, and (2) Forms D and E. The resultant polymorphs were characterized with XRD after 1 and 7 days, the results of which analyses are shown in FIGURE S 67-68 and summarized in TABLE 13. Pattern D stood out from both binary mixture slurries of A & D and of D & E after seven-day stirring at the elevated temperature.
Additional single form slurry experiments were conducted on Forms A, D, and E in either water or heptane at room temperature. […] In agreement with prior competitive slurry experiments, Form D was stable at room temperature in n-heptane. Pattern E was obtained from slurries starting with Forms A and E in n-heptane. As expected, Form C was formed from the Pattern E slurry in water.

[4] = Thermal stress studies at 60° C. (XRD, HPLC); format: physicochemical; details: for Day 1 % AUC / Day 7 % AUC / Initial % AUC: HPLC; for Initial % AUC: before thermal stress
Description: Briefly, 20 mg of solid Form A, B, C, D, E, F, G, and I were weighed into 7 mL glass vials. The vials were covered with tissue and stored in ovens set to 60° C. and ambient pressure. Following 1 and 7 days incubation, solid was collected for XRD analysis.
As shown in these figures, Forms B and C converted to Forms D and A, respectively, while the other forms remained unchanged.
The starting materials, intermediates (1 day of thermal stress), and products (7 days of thermal stress) were analyzed by H PLC. Representative chromatograms from the Form D thermal stress analyses are shown in FIGS. 81-83 (starting material, 1 day, and 7 day samples, respectively).

[5] = Crystallization of Formula (I) in single- and binary-solvent systems (resultant XRD pattern)
Description: Formula (I) crystallization was first analyzed in single-solvent systems lacking antisolvent. […] Fast cooling was performed by placing the vials in a 4° C. refrigerator for 24 hours, while slow cooling was performed by decreasing the temperatures of the vials by 20° C./h with stirring. The resulting solids were isolated by centrifuge filtration through […] centrifuge filters. When solids were not produced, the solution was evaporated under nitrogen as an additional attempt to obtain solid. All obtained solids were analyzed by XRD to determine the solid pattern.
Formula (I) recrystallization was then tested with binary-solvent systems containing water, n-heptane, or c-hexane as antisolvent. […] Anti solvents were added drop-wise at the same temperature until precipitate was observed or the vial volume was reached (˜7 mL). The vials were quickly cooled to 4° C. or slowly cooled by 20° C./hour as in the single-solvent recrystallizations. The resulting solids were isolated by centrifuge filtration. The samples without precipitation were evaporated to dryness under a gentle stream of nitrogen gas as an additional attempt to obtain solid. All obtained solids were analyzed by XRD to determine the solid form. […]

CC[C@H](C)C(=O)N1CCC(NC(=O)Nc2ccc(OC(F)(F)F)c(F)c2)CC1 [C]
DSC Thermal Events, Endo: dehydration of bound water of pattern C [1]: 73° C.: dehydration of bound water of
DSC Thermal Events, Endo: melting of pattern A [1]: 109 °C melting of pattern A
DSC Thermal Events, Endo: melting of pattern F [1]: 147 °C melting of pattern F
DSC Thermal Events, Exo: crystallization of pattern F [1]: 114 °C crystallization of pattern F
TGA: wt change ([2]; at range 39° C.-50° C.): 1.4% wt change at

CC[C@H](C)C(=O)N1CCC(NC(=O)Nc2ccc(OC(F)(F)F)c(F)c2)CC1 [E]
DSC Thermal Events, Endo: dehydration of bound water of pattern E [1]: 121 °C dehydration of bound water of
DSC Thermal Events, Endo: melting of pattern D [1]: 142 °C melting of pattern D
DSC Thermal Events, Endo: melting of pattern F [1]: 148 °C melting of pattern F
DSC Thermal Events, Exo: crystallization of pattern D [1]: 126 °C crystallization of pattern D
DSC Thermal Events, Exo: crystallization of pattern F [1]: 144 °C crystallization of pattern F
TGA: wt change ([2]; at range 116° C.-119° C.): 4.7% wt change at

CC[C@H](C)C(=O)N1CCC(NC(=O)Nc2ccc(OC(F)(F)F)c(F)c2)CC1 [Form A, (S)-1-(3-fluoro-4-(trifluoromethoxy)phenyl)-3-(1-(2-methylbutanoyl)piperidin-4-yl)urea]
single form slurry in n-heptane: resultant polymorph [3]: Pattern E
Day 1 % AUC ([4]; 60° C.): 100%
Day 7 % AUC ([4]; 60° C.): 100%
Initial % AUC [4]: 100%
DSC Thermal Events, Endo: melting of pattern A [1]: 113 °C melting of pattern A
DSC Thermal Events, Endo: melting of pattern D [1]: 141 °C melting of pattern D (shoulder)
DSC Thermal Events, Endo: melting of pattern F [1]: 148 °C meting of patter F
DSC Thermal Events, Exo: crystallization of pattern D [1]: 127 °C crystallization of pattern D
DSC Thermal Events, Exo: crystallization of pattern F [1]: 117 °C crystallization of pattern
thermodynamic stability (from heat of fusion) [1]: thermodynamically stable
Heat of fusion [1]: 29.73
TGA: wt change ([2]; below 150° C.): No wt change below

CC[C@H](C)C(=O)N1CCC(NC(=O)Nc2ccc(OC(F)(F)F)c(F)c2)CC1 [Form B, (S)-1-(3-fluoro-4-(trifluoromethoxy)phenyl)-3-(1-(2-methylbutanoyl)piperidin-4-yl)urea]
conversion to Form D ([4]; 60° C., following one day of incubation): 100%
DSC Thermal Events, Endo: melting of pattern B [1]: 146 °C melting of pattern B
DSC Thermal Events, Endo: melting of pattern D [1]: 141 °C melting of pattern D
thermodynamic stability (from heat of fusion) [1]: thermodynamically stable
Heat of fusion ([1]; listed as B): 53.14
TGA: wt change ([2]; below 150° C.): No wt change below

CC[C@H](C)C(=O)N1CCC(NC(=O)Nc2ccc(OC(F)(F)F)c(F)c2)CC1 [Form E, (S)-1-(3-fluoro-4-(trifluoromethoxy)phenyl)-3-(1-(2-methylbutanoyl)piperidin-4-yl)urea]
single form slurry in n-heptane: resultant polymorph [3]: Pattern E
single form slurry in water: resultant polymorph ([3]; water): Form C

CC[C@H](C)C(=O)N1CCC(NC(=O)Nc2ccc(OC(F)(F)F)c(F)c2)CC1 [Form F, (S)-1-(3-fluoro-4-(trifluoromethoxy)phenyl)-3-(1-(2-methylbutanoyl)piperidin-4-yl)urea]
Day 1 % AUC ([4]; 60° C.): 100%
Day 7 % AUC ([4]; 60° C.): 100%
Initial % AUC [4]: 100%
DSC Thermal Events, Endo: melting of pattern F [1]: 150 °C melting of pattern F
Heat of fusion ([1]; listed as F): 57.06

CC[C@H](C)C(=O)N1CCC(NC(=O)Nc2ccc(OC(F)(F)F)c(F)c2)CC1 [Formula (I) Form C]
Formula (I) Product Form ([5]; Acetone (0.1)/n-Heptane (0.4), 50° C., Slow, ppt/evaporate): B + E
Formula (I) Product Form ([5]; DMSO (0.1)/Water (0.05), 70° C., Slow, ppt/filtered): D + F
Formula (I) Product Form ([5]; EtOH (0.1)/c-Hexane (6), 70° C., Slow, clear/): F + H
Formula (I) Product Form ([5]; IPA (0.1)/c-Hexane (2), 70° C., Fast, ppt/filtered): H + F
Formula (I) Product Form ([5]; NMP (0.1)/c-Hexane (6), 70° C., Slow, clear/evaporate): D + F

CC[C@H](C)C(=O)N1CCC(NC(=O)Nc2ccc(OC(F)(F)F)c(F)c2)CC1 [G]
Day 7 XRD ([4]; 60° C., ambient pressure): G/L
DSC Thermal Events, Endo: melting of pattern G [1]: 143 °C melting of pattern G

CC[C@H](C)C(=O)N1CCC(NC(=O)Nc2ccc(OC(F)(F)F)c(F)c2)CC1 [H]
DSC Thermal Events, Endo: dehydration of bound water of pattern C [1]: 83° C.: dehydration of bound water of
DSC Thermal Events, Endo: desolvation of pattern H [1]: 129 °C desolvation of pattern H
DSC Thermal Events, Endo: melting of pattern A [1]: 140 °C melting of pattern A
DSC Thermal Events, Endo: melting of pattern F [1]: 148 °C melting of pattern F
DSC Thermal Events, Exo: crystallization of pattern D [1]: 133 °C crystallization of pattern D
DSC Thermal Events, Exo: crystallization of pattern F [1]: 142 °C crystallization of patter F
TGA: wt change ([2]; at 83° C.): No detectable wt
TGA: wt change ([2]; at range […] C.-126° C.): 7.2% wt change at

CC[C@H](C)C(=O)N1CCC(NC(=O)Nc2ccc(OC(F)(F)F)c(F)c2)CC1 [I]
DSC Thermal Events, Endo: melting of pattern I [1]: 144 °C melting of pattern I

CC[C@H](C)C(=O)N1CCC(NC(=O)Nc2ccc(OC(F)(F)F)c(F)c2)CC1 [J]
DSC Thermal Events, Endo: dehydration of bound water/desolvation of pattern J or another unknown pattern [1]: 129 °C dehydration of bound
DSC Thermal Events, Endo: melting of pattern B [1]: 146 °C melting of pattern B
DSC Thermal Events, Endo: melting of pattern F [1]: 149 °C melting of pattern F
DSC Thermal Events, Endo: melting of unknown pattern [1]: 140 °C melting of unknown
DSC Thermal Events, Exo: crystallization of unknown pattern [1]: 103 °C crystallization of unknown
DSC Thermal Events, Endo: dehydration of bound water/desolvation of pattern J ([1]; major peak with a shoulder): 91 °C dehydration of bound
TGA: wt change ([2]; at range 75° C.-82° C.): 3.7% wt change at
TGA: wt change ([2]; at range 116° C.-[…] C.): 4.6% wt change at

CC[C@H](C)C(=O)N1CCC(NC(=O)Nc2ccc(OC(F)(F)F)c(F)c2)CC1 [K]
DSC Thermal Events, Endo: dehydration of bound water/desolvation of pattern K [1]: 127 °C dehydration of bound water/
DSC Thermal Events, Endo: melting of pattern D [1]: 142 °C melting of pattern D
DSC Thermal Events, Endo: melting of pattern F [1]: 148 °C melting of pattern F
DSC Thermal Events, Exo: crystallization of pattern D [1]: 130 °C crystallization of pattern D
TGA: wt change ([2]; at range 120° C.-[…] C.): 5.0% wt change at

CC[C@H](C)C(=O)N1CCC(NC(=O)Nc2ccc(OC(F)(F)F)c(F)c2)CC1 [L]
DSC Thermal Events, Endo: melting of pattern D [1]: 141 °C melting of pattern D
DSC Thermal Events, Endo: melting of pattern F [1]: 148 °C melting of pattern F
DSC Thermal Events, Exo: crystallization of pattern D [1]: 138 °C crystallization of pattern D
DSC Thermal Events, Exo: crystallization of pattern F [1]: 143 °C crystallization of patter F
TGA: wt change ([2]; at range 107° C.-[…] C.): 0.4% wt change at
TGA: wt change ([2]; at range […] C.-135° C.): 0.3% wt change at

CC[C@H](C)C(=O)N1CCC(NC(=O)Nc2ccc(OC(F)(F)F)c(F)c2)CC1 [Lot 3]
Endotherm (likely dehydration of bound water) ([1]; DSC thermogram of lot): 84 °C
Endotherm (melting of Form A) ([1]; DSC thermogram of lot): 111 °C (melting of Form A),
Exotherm (crystallization of Form B) ([1]; DSC thermogram of lot): 117 °C (crystallization of
